Test results published in the supplement of paper PMC10307832.

Columns and labels:
Assay in all cases: relative viability (nuclei count vs DMSO), 5 days (fraction); higher = more cells survive
[1] = compound: CC1=NC=CC(=C1)C2=CC=C(C=C2)CC(=O)NC3=CC=C(C=C3)C4=CN=CC=C4 [Wnt-C59] + C[C@@H](Oc1cc(-c2cnn(C3CCNCC3)c2)cnc1N)c1c(Cl)ccc(F)c1Cl [Crizotinib] (partner 1 µM)
In short: (§1)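 Cells from lung cancer lines were seeded into 1536-well plates and, one day later, dosed by pin tool. Treatments were either a single drug or a fixed dose of an anchor drug with five library-drug doses (not always all listed) in √10 steps. After 5 days, nuclei were stained in a one-step fixation (final 0.05% Triton X-100, 1% formaldehyde, 1 ug/ml Hoechst) and counted on 4× images, and relative viability is the treated-to-vehicle nuclei ratio, as the median of duplicate plates.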

[2] = compound: CC1=NC=CC(=C1)C2=CC=C(C=C2)CC(=O)NC3=CC=C(C=C3)C4=CN=CC=C4 [Wnt-C59] + CS(=O)(=O)N1CCN(Cc2cc3nc(-c4cccc5[nH]ncc45)nc(N4CCOCC4)c3s2)CC1 [Pictilisib] (partner 1 µM)
In short: as §1

[3] = compound: CS(=O)(=O)CCNCc1ccc(-c2ccc3ncnc(Nc4ccc(OCc5cccc(F)c5)c(Cl)c4)c3c2)o1 [Lapatinib] + C[C@@H](Oc1cc(-c2cnn(C3CCNCC3)c2)cnc1N)c1c(Cl)ccc(F)c1Cl [Crizotinib] (partner 1 µM)
In short: as §1

[4] = compound: CS(=O)(=O)CCNCc1ccc(-c2ccc3ncnc(Nc4ccc(OCc5cccc(F)c5)c(Cl)c4)c3c2)o1 [Lapatinib] + N=C(N)NC(=N)NCCc1ccccc1 [Phenformin] (partner 250 µM)
In short: as §1

Cell Line	relative viability ([1]; first compound 0.001 µM)	relative viability ([1]; first compound 0.01 µM)	relative viability ([1]; first compound 0.03162 µM)	relative viability ([1]; first compound 0.1 µM)	relative viability ([2]; first compound 0.001 µM)	relative viability ([2]; first compound 0.01 µM)	relative viability ([2]; first compound 0.03162 µM)	relative viability ([2]; first compound 0.1 µM)	relative viability ([3]; first compound 0.02 µM)	relative viability ([3]; first compound 0.06325 µM)	relative viability ([3]; first compound 0.2 µM)	relative viability ([3]; first compound 0.6325 µM)	relative viability ([3]; first compound 2 µM)	relative viability ([4]; first compound 0.06325 µM)	relative viability ([4]; first compound 0.2 µM)	relative viability ([4]; first compound 0.6325 µM)	relative viability ([4]; first compound 2 µM)	relative viability ([4]; first compound 0.02 µM)
NCI-H2085	0.929	0.803	0.953	0.823	0.502	0.449	0.41	0.45	0.824	0.996	0.759	0.807	0.616	0.64	0.735	0.61	0.458	
NCI-H2405	0.833	0.806	0.812	0.779	0.433		0.406	0.432	0.628	0.753	0.884	0.824	0.767	0.278	0.405	0.372	0.357	0.321
NCI-H1666	0.989	1.05	0.902	1.1	0.43	0.218	0.479	0.477	0.787	1.05	0.847	0.842	0.357	0.545	0.592	0.611	0.461	0.555
NCI-H322M	0.819	0.937	0.877	0.841	0.517	0.426	0.491	0.414	0.823	0.649	0.912	0.857	0.735	0.736	0.736	0.693	0.551	0.805
NCI-H1563	0.812	0.802	0.965	0.797	0.604	0.665	0.721	0.646	0.881	0.874	0.861	0.789	0.774	0.645	0.69	0.76	0.688	0.626
IA-LM	0.919	0.746	0.632	0.705	0.271	0.251	0.337	0.375	0.823	0.98	0.713	0.881	0.644					
CAL-12T	0.699	0.654	0.89	0.555	0.259		0.436	0.511	0.593	0.59	0.575	0.57	0.326	0.474	0.5	0.404	0.337	
NCI-H1395					0.656	0.608	0.655	0.664						0.431	0.442	0.444	0.432	0.45
NCI-H3122	0.28	0.268	0.283	0.249	0.61	0.642	0.626	0.518	0.277	0.224	0.27	0.268	0.274	0.379	0.392	0.385	0.33	
HARA	1.04	0.642	1.15	1.06	0.32	0.523	0.402	0.6	1.04	1.28	0.932	0.934	0.447	0.307	0.434	0.399	0.337	
